Like-named read-outs stand apart in the source and are kept apart here.
Columns and labels:
CDK4/CyclinD1 = CDK4/CyclinD1 (Homo sapiens (Human), UniProt P11802); assay: CDK4/CyclinD1 kinase assay (Nanosyn, Caliper microfluidic); assay type: biochemical; conditions: Table 2; read-out: CDK4/CycD1 IC50
Experimental: (§1) Selected compounds disclosed herein were tested in CDK4/cyclinD1, CDK6/CycD3 CDK2/CycA and CDK2/cyclinE kinase assays by Nanosyn (Santa Clara, Calif.) to determine their inhibitory effect on these CDKs. The assays were performed using microfluidic kinase detection technology (Caliper Assay Platform). The compounds were tested in 12-point dose-response format in singlicate at Km for ATP. Phosphoacceptor substrate peptide concentration used was 1 μM for all assays and Staurosporine was used as the reference compound for all assays. Specifics of each assay are as described below:
CDK4/CyclinD1: Enzyme concentration: 1 nM; ATP concentration: 200 μM; Incubation time: 10 hr.

CDK2/CyclinE = CDK2/CyclinE (Homo sapiens (Human), UniProt P24941); assay: CDK2/CyclinE kinase assay (Nanosyn, Caliper microfluidic); assay type: biochemical; conditions: for IC50: read-out: CDK2/CycE IC50
Experimental: as §1, with “assays.” for “assays. Specifics of each assay are as described below:”

CDK2/CyclinA = CDK2/CyclinA (Homo sapiens (Human), UniProt P24941); assay: CDK2/CyclinA kinase assay (Nanosyn, Caliper microfluidic); assay type: biochemical; conditions: for IC50: read-out: CDK2/CycA IC50
Experimental: as §1
CDK2/CyclinA: Enzyme concentration: 0.2 nM; ATP concentration: 50 μM; Incubation time: 3 hr.

[1] = Mouse pharmacokinetics (oral gavage / intravenous); assay type: in vivo, mice; conditions: mouse

Sequence of CDK4/CyclinD1 (P11802 whole entry, species assumed): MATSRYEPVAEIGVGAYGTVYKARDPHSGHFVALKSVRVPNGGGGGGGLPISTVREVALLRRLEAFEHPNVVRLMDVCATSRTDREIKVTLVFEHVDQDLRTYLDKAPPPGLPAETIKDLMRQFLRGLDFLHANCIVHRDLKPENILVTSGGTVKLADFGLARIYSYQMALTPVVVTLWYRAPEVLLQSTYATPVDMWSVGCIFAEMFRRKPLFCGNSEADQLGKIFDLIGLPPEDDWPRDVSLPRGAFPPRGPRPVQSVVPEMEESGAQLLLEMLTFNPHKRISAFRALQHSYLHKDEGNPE
Sequence of CDK4/CyclinD1 (P24385 whole entry partner, species assumed): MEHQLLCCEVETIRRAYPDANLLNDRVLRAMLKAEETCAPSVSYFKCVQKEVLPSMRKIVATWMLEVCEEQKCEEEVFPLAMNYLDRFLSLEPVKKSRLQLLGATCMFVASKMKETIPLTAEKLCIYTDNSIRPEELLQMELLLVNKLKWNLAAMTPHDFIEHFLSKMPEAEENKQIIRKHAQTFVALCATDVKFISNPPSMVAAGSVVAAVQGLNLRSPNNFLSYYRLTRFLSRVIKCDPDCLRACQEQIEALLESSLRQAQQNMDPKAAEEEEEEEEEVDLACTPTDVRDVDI

SMILES | IC50 (CDK4/CyclinD1) | Fold Selectivity (CDK2/CycE/CDK4) (CDK2/CyclinE; Table 2) | IC50 (CDK2/CyclinE; Table 2) | Fold Selectivity (CDK2/CycA/CDK4) (CDK2/CyclinA; Table 2) | IC50 (CDK2/CyclinA; Table 2) | further results
C[C@H](O)CN1CCN(c2ccc(Nc3ncc4cc5n(c4n3)C3(CCCCC3)CNC5=O)nc2)CC1 [A] | 4.2 nM | 1516 | 6350 nM | 754 | 3160 nM | –
CCC(C)CN1[C@H](C)CN(c2ccc(Nc3ncc4cc5n(c4n3)C3(CCCC3)CNC5=O)nc2)C[C@@H]1C (stereo partly drawn) [JJJ] | 3.2 nM | 1620 | 5200 nM | 882 | 2830 nM | –
CC(C)(O)CN1CCN(c2ccc(Nc3ncc4cc5n(c4n3)C3(CCCC3)CNC5=O)nc2)CC1 [EEE] | 2.3 nM | 1266 | 2950 nM | 405 | 943 nM | –
C[C@H](O)CN1CCN(c2ccc(Nc3ncc4cc5n(c4n3)C3(CCCCC3)CNC5=O)nc2)C[C@@H]1C [C] | 1.4 nM | 1333 | 1920 nM | 428 | 616 nM | –
CCN(CC)C1CCN(C2CCN(c3ccc(Nc4ncc5cc6n(c5n4)C4(CCCCC4)CNC6=O)nc3)CC2)C1 (stereo not drawn) [RR] | 1.2 nM | 1374 | 1580 nM | 603 | 693 nM | –
CC1(C)CN(c2ccc(Nc3ncc4cc5n(c4n3)C3(CCCCC3)CNC5=O)nc2)CCN1 [I] | 2 nM | 1065 | 2120 nM | 568 | 1130 nM | –
C[C@@H]1CN(c2ccc(Nc3ncc4cc5n(c4n3)C3(CCCCC3)CNC5=O)nc2)CCN1C [NN] | 3.7 nM | 1274 | 4700 nM | 423 | 1560 nM | –
CC1(C)CN(c2ccc(Nc3ncc4cc5n(c4n3)C3(CCCCC3)CNC5=O)nc2)CCN1C1CC1 [BB] | 0.8 nM | 2017 | 1680 nM | 603 | 502 nM | –
C[C@H]1CN(c2ccc(Nc3ncc4cc5n(c4n3)C3(CCCCC3)CNC5=O)nc2)CCN1 [KK] | 2.3 nM | 762 | 1760 nM | 396 | 915 nM | –
O=C1NCC2(CCCCC2)n2c1cc1cnc(Nc3ccc(C(=O)N4CCN(C5CCC5)CC4)cn3)nc12 [LL] | 2 nM | 103 | 202 nM | 55 | 108 nM | –
CC(C)(C)CCN1CCN(c2ccc(Nc3ncc4cc5n(c4n3)C3(CCCC3)CNC5=O)nc2)CC1 [KKK] | 1.3 nM | 231 | 291 nM | 69 | 87.3 nM | –
O=C1NCC2(CCCCC2)n2c1cc1cnc(Nc3ccc(N4CCN(CC5CC5)CC4)cn3)nc12 [HH] | 1.7 nM | 766 | 1280 nM | 159 | 265 nM | –
CCN(CC)C1CCN(c2ccc(Nc3ncc4cc5n(c4n3)C3(CCCCC3)CNC5=O)nc2)C1 (stereo not drawn) [QQ] | 4.1 nM | 746 | 3060 nM | 627 | 2570 nM | –
C[C@@H]1CN(c2ccc(Nc3ncc4cc5n(c4n3)C3(CCCCC3)CNC5=O)nc2)CCN1 [V] | 2.9 nM | 1224 | 3500 nM | 745 | 2130 nM | –
CC(C)C1CN(c2ccc(Nc3ncc4cc5n(c4n3)C3(CCCCC3)CNC5=O)nc2)CCN1 (stereo not drawn) [E] | 1 nM | 688 | 695 nM | 202 | 204 nM | –
O=C1NCC2(CCCCC2)n2c1cc1cnc(Nc3ccc(N4CCC(N5CCC(C(F)(F)F)CC5)CC4)cn3)nc12 [X] | 0.9 nM | 12975 | 11600 nM | 2058 | 1840 nM | –
CC(C)N1CCN(c2ccc(Nc3ncc4cc5n(c4n3)C3(CCCCC3)CNC5=O)nc2)CC1C (stereo not drawn) [PP] | 3.1 nM | 1146 | 3600 nM | 984 | 3090 nM | –
CCOCCN1CCN(c2ccc(Nc3ncc4cc5n(c4n3)C3(CCCC3)CNC5=O)nc2)CC1 [MMM] | 3.2 nM | 600 | 1890 nM | 314 | 990 nM | –
O=C1NCC2(CCCCC2)n2c1cc1cnc(Nc3ccc(N4CCC(N5CCOCC5)CC4)cn3)nc12 [Compound U, 2′-((5-(4-morpholinopiperidin-1-yl)pyridin-2-yl)amino)-7′,8′-dihydro-6′H-spiro[cyclohexane-1,9′-pyrazino[1′,2′:1,5]pyrrolo[2,3-d]pyrimidin]-6′-one] | – | – | 1460 nM | – | 857 nM | IC50 (CDK2/CyclinE; Table 3): 1460 nM; IC50 (CDK2/CyclinA; Table 3): 857 nM; F [1]: 67%; half-life ([1]; plasma, po, 30 mg/kg, 30 mg/kg oral gavage, read-out: t1/2 p.o. (converted)): 3 h; half-life ([1]; plasma, po, 30 mg/kg, read-out: plasma half-life following oral administration): 3 to 5 h; bioavailability ([1]; plasma, po, 30 mg/kg, read-out: oral bioavailability (F (%))): 52 to 80%; AUC(0-inf) ([1]; plasma, iv, 10 mg/kg i.v.): 0.76 µM·h; clearance ([1]; plasma, iv, 10 mg/kg i.v.): 52 mL/min/kg; Vd ([1]; plasma, iv, 10 mg/kg i.v., read-out: Vss): 3.4 L/kg; AUC ([1]; plasma, 30 mg/kg oral gavage): 3.3 µM·h; Cmax ([1]; plasma, 30 mg/kg oral gavage): 4.2 µM; Tmax ([1]; plasma, 30 mg/kg oral gavage): 0.5 h
CC(C)N1CCN(c2ccc(Nc3ncc4cc5n(c4n3)C3(CCCCC3)CNC5=O)nc2)C[C@H]1C [L] | 5.7 nM | 789 | 4530 nM | 260 | 1490 nM | –
CC(C)N1CCN(C(=O)c2ccc(Nc3ncc4cc5n(c4n3)C3(CCCCC3)CNC5=O)nc2)CC1 [II] | 2 nM | 184 | 367 nM | 120 | 239 nM | –
CCN(CC)C1CCN(c2ccc(Nc3ncc4cc5n(c4n3)C3(CCCCC3)CNC5=O)nc2)CC1 [CC] | 1.6 nM | 791 | 1250 nM | 478 | 755 nM | –
C[C@H](O)CN1[C@H](C)CN(c2ccc(Nc3ncc4cc5n(c4n3)C3(CCCCC3)CNC5=O)nc2)C[C@@H]1C [Z] | 3.2 nM | 1174 | 3710 nM | 205 | 647 nM | –
C[C@@H]1CN(c2ccc(Nc3ncc4cc5n(c4n3)C3(CCCCC3)CNC5=O)nc2)C[C@H](C)N1C [DD] | 1.9 nM | 5200 | 9620 nM | 4519 | 8360 nM | –
CC1(C)CN(c2ccc(Nc3ncc4cc5n(c4n3)C3(CCCCC3)CNC5=O)nc2)CCN1CC1CC1 [H] | 1.5 nM | 1013 | 1520 nM | 251 | 377 nM | –
CC1CN(c2ccc(Nc3ncc4cc5n(c4n3)C3(CCCCC3)CNC5=O)nc2)CCN1CCC(C)(C)C (stereo not drawn) [G] | 1.5 nM | 1767 | 2580 nM | 442 | 646 nM | –
C[C@H]1CN(c2ccc(Nc3ncc4cc5n(c4n3)C3(CCCCC3)CNC5=O)nc2)CCN1CCC(C)(C)C [M] | 2.3 nM | 1004 | 2280 nM | 621 | 1410 nM | –
